Measured values as given in US20240366639A1, “HETEROCYCLIC GLP-1 AGONISTS” (GASHERBRUM BIO, INC., priority 2021, published 2024).
Like-named read-outs stand apart in the source and are kept apart here.

Biological target: T1, GLP-1 Receptor (GLP1R) (Homo sapiens, UniProt P43220)
T1 construct: host or cells: HEK293/GLP1R/CRE-LUC
Assay: GLP-1R agonist cAMP stimulation assay (Method 3)
Format: cell-based
Conditions: HEK293/GLP1R/CRE-LUC cells (HDB), Method 3, 30 min incubation
Experimental: Method 3: Activation of GLP-1 receptor is known to stimulate cyclic AMP (cAMP) production in cells which indicates primary coupling to the Gαs subunit of the G protein heterotrimeric complex.
To optimize functional activity directed toward Gαs coupling, a HEK293/CRE-Luc cell line developed by HDB stably expressing the GLP-1 Receptor was used, 200× concentration of compound working solutions were prepared (Agilent Technologies Bravo) with 1/2 log serial dilution in 384-well Echo LDV plate (Labcyte, Cat #LP-0200). 50 nL/well 200× concentration of compound working solutions were moved to 384-well white low volume plate (Greiner, Cat #784075) using Labcyte ECHO550. 1×10^5 cells/mL HEK293/GLP1R/CRE-LUC(HD Biosciences) cell suspensions prepared with assay buffer [DPBS containing 0.5 mM IBMX (Sigma, Cat #15879) and 0.1% BSA (GENVIEW, Cat #FA016-100 g)], 10 μL cell suspensions were added to each well of previous generated assay plate which already contains 50 nL compound at 200× concentration using ThermoFisher Multidrop Combi (1000 cells/well). Seal the plate and incubate at 37° C. with 5% CO2 for 30 min.
After incubation the cAMP assay signal was generated using cAMP dynamic 2 Kit (Cisbio). 5 μL cAMP-d2 working solution was added to each well, followed with 5 μL Anti-cAMP antibody-cryptate working solution added to each well using ThermoFisher Multidrop Combi. Incubate at room temperature for 1 hour protected from light. Read the fluorescence at 665 nm and 615 nm with Reader PerkinElmer EnVision.

[1] = read-out: GLP1R cAMP Stimulation DR: EC50 (nM) [Species: Human, Assay Cell Line: HDB]
[2] = read-out: GLP1R cAMP Stimulation DR: pEC50 (M) [Species: Human, Assay Cell Line: HDB] (converted)

T1 sequence (P43220 24-463): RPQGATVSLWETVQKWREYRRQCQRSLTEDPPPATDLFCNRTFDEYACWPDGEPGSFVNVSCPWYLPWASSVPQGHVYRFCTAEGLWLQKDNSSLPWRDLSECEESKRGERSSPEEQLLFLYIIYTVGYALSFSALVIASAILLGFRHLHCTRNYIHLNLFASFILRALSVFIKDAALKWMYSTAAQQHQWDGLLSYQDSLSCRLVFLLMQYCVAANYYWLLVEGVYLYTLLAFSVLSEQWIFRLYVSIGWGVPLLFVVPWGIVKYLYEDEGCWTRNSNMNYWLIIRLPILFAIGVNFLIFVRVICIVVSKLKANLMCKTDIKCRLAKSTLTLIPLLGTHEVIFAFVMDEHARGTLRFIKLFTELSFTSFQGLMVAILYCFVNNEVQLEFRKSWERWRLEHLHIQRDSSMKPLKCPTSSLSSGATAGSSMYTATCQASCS

EC50 [1] [nM] | EC50 [2] [nM] | SMILES
0.1 to 0.2 | 0.1 to 1 | Cc1cc(-n2nc3c(c2-n2ccn(-c4ccc(P(C)(C)=O)cc4)c2=O)[C@H](C)N(C(=O)c2cc4cc(C5CCOCC5)ccc4n2[C@@]2(c4noc(=O)[nH]4)C[C@@H]2C)CC3)cc(C)c1F [Compound 101a, 3-((1S,2S)-1-(2-((S)-3-(3-(4-(Dimethylphosphoryl)phenyl)-2-oxo-2,3-dihydro-1H-imidazol-1-yl)-2-(4-fluoro-3,5-dimethylphenyl)-4-methyl-4,5,6,7-tetrahydro-2H-pyrazolo[4,3-c]pyridine-5-carbonyl)-5-(tetrahydro-2H-pyran-4-yl)-1H-indol-1-yl)-2-methylcyclopropyl)-1,2,4-oxadiazol-5(4H)-one]
0.1 to 0.2 | 0.1 to 1 | Cc1cc(-n2nc3c(c2-n2ccn(-c4ccc(P(C)(C)=O)nc4)c2=O)[C@H](C)N(C(=O)c2cc4cc(C5CCOCC5)ccc4n2[C@@]2(c4noc(=O)[nH]4)C[C@@H]2C)CC3)cc(C)c1F [Compound 105a, 3-((1S,2S)-1-(2-((S)-3-(3-(6-(dimethylphosphoryl)pyridin-3-yl)-2-oxo-2,3-dihydro-1H-imidazol-1-yl)-2-(4-fluoro-3,5-dimethylphenyl)-4-methyl-4,5,6,7-tetrahydro-2H-pyrazolo[4,3-c]pyridine-5-carbonyl)-5-(tetrahydro-2H-pyran-4-yl)-1H-indol-1-yl)-2-methylcyclopropyl)-1,2,4-oxadiazol-5(4H)-one]
< 0.1 | ≤ 0.1 | CNc1cc(-n2ccn(-c3c4c(nn3-c3cc(C)c(F)c(C)c3)CCN(C(=O)c3cc5cc(C6CCOCC6)ccc5n3[C@@]3(c5noc(=O)[nH]5)C[C@@H]3C)[C@H]4C)c2=O)ccc1P(C)(C)=O [Compound 106a, 3-((1S,2S)-1-(2-((S)-3-(3-(4-(dimethylphosphoryl)-3-(methylamino)phenyl)-2-oxo-2,3-dihydro-1H-imidazol-1-yl)-2-(4-fluoro-3,5-dimethylphenyl)-4-methyl-4,5,6,7-tetrahydro-2H-pyrazolo[4,3-c]pyridine-5-carbonyl)-5-(tetrahydro-2H-pyran-4-yl)-1H-indol-1-yl)-2-methylcyclopropyl)-1,2,4-oxadiazol-5(4H)-one]
0.2 to 0.5 | 0.1 to 1 | Cc1cc(-n2nc3c(c2-n2ccn(-c4cccc(P(C)(C)=O)c4O)c2=O)[C@H](C)N(C(=O)c2cc4cc(C5CCOCC5)ccc4n2[C@@]2(c4noc(=O)[nH]4)C[C@@H]2C)CC3)cc(C)c1F [Compound 107a, 3-((1S,2S)-1-(2-((S)-3-(3-(3-(dimethylphosphoryl)-2-hydroxyphenyl)-2-oxo-2,3-dihydro-1H-imidazol-1-yl)-2-(4-fluoro-3,5-dimethylphenyl)-4-methyl-4,5,6,7-tetrahydro-2H-pyrazolo[4,3-c]pyridine-5-carbonyl)-5-(tetrahydro-2H-pyran-4-yl)-1H-indol-1-yl)-2-methylcyclopropyl)-1,2,4-oxadiazol-5(4H)-one]
0.2 to 0.5 | 0.1 to 1 | Cc1cc(-n2nc3c(c2-n2ccn(-c4ccc(P(C)(C)=O)c(F)c4)c2=O)[C@H](C)N(C(=O)c2cc4cc(C5CCOCC5)ccc4n2[C@@]2(c4noc(=O)[nH]4)C[C@@H]2C)CC3)cc(C)c1F [Compound 108a, 3-((1S,2S)-1-(2-((S)-3-(3-(4-(dimethylphosphoryl)-3-fluorophenyl)-2-oxo-2,3-dihydro-1H-imidazol-1-yl)-2-(4-fluoro-3,5-dimethylphenyl)-4-methyl-4,5,6,7-tetrahydro-2H-pyrazolo[4,3-c]pyridine-5-carbonyl)-5-(tetrahydro-2H-pyran-4-yl)-1H-indol-1-yl)-2-methylcyclopropyl)-1,2,4-oxadiazol-5(4H)-one]
0.1 to 0.2 | 0.1 to 1 | Cc1cc(-n2nc3c(c2-n2ccn(-c4cccc(P(C)(C)=O)c4)c2=O)[C@H](C)N(C(=O)c2cc4cc(C5CCOCC5)ccc4n2[C@@]2(c4noc(=O)[nH]4)C[C@@H]2C)CC3)cc(C)c1F [Compound 109a, 3-((1S,2S)-1-(2-((S)-3-(3-(3-(dimethylphosphoryl)phenyl)-2-oxo-2,3-dihydro-1H-imidazol-1-yl)-2-(4-fluoro-3,5-dimethylphenyl)-4-methyl-4,5,6,7-tetrahydro-2H-pyrazolo[4,3-c]pyridine-5-carbonyl)-5-(tetrahydro-2H-pyran-4-yl)-1H-indol-1-yl)-2-methylcyclopropyl)-1,2,4-oxadiazol-5(4H)-one]
0.5 to 5 | 0.1 to 1 | Cc1cc(-n2nc3c(c2-n2ccn(-c4cc(P(C)(C)=O)c5[nH]cnc5c4)c2=O)[C@H](C)N(C(=O)c2cc4cc(C5CCOCC5)ccc4n2[C@@]2(c4noc(=O)[nH]4)C[C@@H]2C)CC3)cc(C)c1F [Compound 110a, 3-((1S,2S)-1-(2-((S)-3-(3-(7-(dimethylphosphoryl)-1H-benzo[d]imidazol-5-yl)-2-oxo-2,3-dihydro-1H-imidazol-1-yl)-2-(4-fluoro-3,5-dimethylphenyl)-4-methyl-4,5,6,7-tetrahydro-2H-pyrazolo[4,3-c]pyridine-5-carbonyl)-5-(tetrahydro-2H-pyran-4-yl)-1H-indol-1-yl)-2-methylcyclopropyl)-1,2,4-oxadiazol-5(4H)-one]
< 0.1 | ≤ 0.1 | Cc1cc(-n2nc3c(c2-n2ccn(-c4ccc(P(C)(C)=O)c(N)c4)c2=O)[C@H](C)N(C(=O)c2cc4cc(C5CCOCC5)ccc4n2[C@@]2(c4noc(=O)[nH]4)C[C@@H]2C)CC3)cc(C)c1F [Compound 111a, 3-((1S,2S)-1-(2-((S)-3-(3-(3-amino-4-(dimethylphosphoryl)phenyl)-2-oxo-2,3-dihydro-1H-imidazol-1-yl)-2-(4-fluoro-3,5-dimethylphenyl)-4-methyl-4,5,6,7-tetrahydro-2H-pyrazolo[4,3-c]pyridine-5-carbonyl)-5-(tetrahydro-2H-pyran-4-yl)-1H-indol-1-yl)-2-methylcyclopropyl)-1,2,4-oxadiazol-5(4H)-one]
0.5 to 5 | 0.1 to 1 | Cc1cc(-n2nc3c(c2-n2ccn(-c4cc(P(C)(C)=O)c5c(cnn5C)c4)c2=O)[C@H](C)N(C(=O)c2cc4cc(C5CCOCC5)ccc4n2[C@@]2(c4noc(=O)[nH]4)C[C@@H]2C)CC3)cc(C)c1F [Compound 112a, 3-((1S,2S)-1-(2-((S)-3-(3-(7-(dimethylphosphoryl)-1-methyl-1H-indazol-5-yl)-2-oxo-2,3-dihydro-1H-imidazol-1-yl)-2-(4-fluoro-3,5-dimethylphenyl)-4-methyl-4,5,6,7-tetrahydro-2H-pyrazolo[4,3-c]pyridine-5-carbonyl)-5-(tetrahydro-2H-pyran-4-yl)-1H-indol-1-yl)-2-methylcyclopropyl)-1,2,4-oxadiazol-5(4H)-one]
0.2 to 0.5 | 0.1 to 1 | Cc1cc(-n2nc3c(c2-n2ccn(-c4cccc(P(C)(C)=O)n4)c2=O)[C@H](C)N(C(=O)c2cc4cc(C5CCOCC5)ccc4n2[C@@]2(c4noc(=O)[nH]4)C[C@@H]2C)CC3)cc(C)c1F [Compound 113a, 3-((1S,2S)-1-(2-((S)-3-(3-(6-(dimethylphosphoryl)pyridin-2-yl)-2-oxo-2,3-dihydro-1H-imidazol-1-yl)-2-(4-fluoro-3,5-dimethylphenyl)-4-methyl-4,5,6,7-tetrahydro-2H-pyrazolo[4,3-c]pyridine-5-carbonyl)-5-(tetrahydro-2H-pyran-4-yl)-1H-indol-1-yl)-2-methylcyclopropyl)-1,2,4-oxadiazol-5(4H)-one]
0.2 to 0.5 | 0.1 to 1 | CCP(=O)(CC)c1ccc(-n2ccn(-c3c4c(nn3-c3cc(C)c(F)c(C)c3)CCN(C(=O)c3cc5cc(C6CCOCC6)ccc5n3[C@@]3(c5noc(=O)[nH]5)C[C@@H]3C)[C@H]4C)c2=O)cc1N1CCOCC1 [Compound 114a, 3-((1S,2S)-1-(2-((S)-3-(3-(4-(diethylphosphoryl)-3-morpholinophenyl)-2-oxo-2,3-dihydro-1H-imidazol-1-yl)-2-(4-fluoro-3,5-dimethylphenyl)-4-methyl-4,5,6,7-tetrahydro-2H-pyrazolo[4,3-c]pyridine-5-carbonyl)-5-(tetrahydro-2H-pyran-4-yl)-1H-indol-1-yl)-2-methylcyclopropyl)-1,2,4-oxadiazol-5(4H)-one]
0.2 to 0.5 | 0.1 to 1 | CCP(=O)(CC)c1ccc(-n2ccn(-c3c4c(nn3-c3cc(C)c(F)c(C)c3)CCN(C(=O)c3cc5cc(C6CCOCC6)ccc5n3[C@@]3(c5noc(=O)[nH]5)C[C@@H]3C)[C@H]4C)c2=O)cc1NC(=O)C1CC1 [Compound 115a, N-(2-(diethylphosphoryl)-5-(3-((S)-2-(4-fluoro-3,5-dimethylphenyl)-4-methyl-5-(1-((1S,2S)-2-methyl-1-(5-oxo-4,5-dihydro-1,2,4-oxadiazol-3-yl)cyclopropyl)-5-(tetrahydro-2H-pyran-4-yl)-1H-indole-2-carbonyl)-4,5,6,7-tetrahydro-2H-pyrazolo[4,3-c]pyridin-3-yl)-2-oxo-2,3-dihydro-1H-imidazol-1-yl)phenyl)cyclopropanecarboxamide]
